According to patent US20230256102A1, “COMPOSITES AND USES THEREOF” (YISSUM RESEARCH DEVELOPMENT COMPANY OF THE HEBREW …, priority 2019, published 2023):

What was measured:
A. citrulli M6 [1] = assay: Bactericidal (killing) activity of LAE@Cu composites in vitro; assay type: cell-based, Acidovorax citrulli; conditions: LAE at 1.25 ppm, 30 min
Description: Assessment of bactericidal activity of LAE @Cu composites in vitro: Bactericidal activity of LAE@Cu composites was tested by adding the composites to 50 ml-PBS suspensions containing ˜10^7 colony forming units (CFU)/ml of A. citrulli M6. The suspensions were incubated at 30° C. with shaking for 30 min. Then, the concentrations of viable bacteria were determined following plating of serial dilutions on nutrient agar (NA, Difco) plates.
Bacterial killing assay: The bactericidal (killing) activity of LAE@[Cu] composites at a concentration of 25 ppm (1.25 mg in 50 ml), were tested in PBS containing ˜107 (CFU)/mL. The suspensions were incubated at 30° C. with shaking for 30 min. Then, the viable bacteria were determined following plating of serial dilutions on NA (nutrient agar) plates. Controls included @[Cu], the composite-like compound without LAE, and the commercial bactericide, Kocide®, at the same concentrations.

A. citrulli M6 [2] = assay: In planta assay, A. citrulli-melon pathosystem; assay type: in vivo, melon (cv. AN-305); conditions: 200 ppm @[Cu], 10 ppm LAE; 5 days after inoculation
Description: Assessment of the ability of the LAE @Cu composites to reduce disease: To assess the potential of LAE@Cu composites for management of bacterial plant diseases, we carried out experiments using the A. citrulli-melon pathosystem. In these experiments, the foliage of three-week-old plants of melon (cv. AN-305; Origene Seeds) were sprayed with LAE1.0@Cu composites at a concentration of 200 ppm. Additional treatments included spraying with 200 ppm of @Cu, 10 ppm of LAE (corresponding to the concentration of LAE in 200 ppm LAE×1.0@Cu) and the commercial bactericide Kocide, which was applied at the recommended concentration for management of the disease (2 mg/ml). As controls, foliage were sprayed with double distilled water (DDW). […] Disease severity of inoculated leaves was determined 5 days after inoculation, using the following scale: 0, no symptoms; 1, few minor lesions; 2, few small necrotic spots; 3, increased necrotic spots in less than 25% of the leaf area; 4, increased necrotic spots in 25 to 50% of the leaf area; and 5, increased necrotic spots in more than 50% of the leaf area and dead leaf. The data were statistically analyzed by one-way analysis of variance (ANOVA) and Tukey's honest significant difference (HSD) test.
In-planta assay: Melon plants (cv. AN-305; Origene Seeds) were grown in a growth chamber at 28° C. […] Disease severity was determined 5 days after inoculation.

CCCCCCCCCCCC(=O)N[C@@H](CCCN=C(N)N)C(=O)OCC [LAE, Lauroyl arginate ethyl ester]
reduction of the A. citrulli population (A. citrulli M6 [1]): 2 orders of magnitude
reduction of disease severity as compared with non-treated controls (A. citrulli M6 [2]): 29%
